PubChem BioAssay AID2060610 (Molecular Pharmacology Branch, DTP, NCI, 2025)

Test system: 616215-338-R-J1-PDC complex spheroids, viability % test/control
Test: Anticancer human tumor 616215-338-R-J1-PDC patient-derived colon adenocarcinoma cell line growth inhibition [CLK]
Conditions: for IC50: curve of first compound; for viability, T/C: stronger effect = lower value
From the text: A high-throughput screen of multi-cell type tumor spheroids was designed to identify active combinations of […] and targeted small molecules. Complex spheroids include a stromal component modeled by human endothelial cells (HUVEC) and fibroblasts modeled by human mesenchymal stem cells (MSCs). The concentration ranges selected for each drug and investigational agent were based upon clinically achievable concentrations if the clinical Cmax of the agent was known.
Compounds. The drugs and investigational agents: cirtuvivint (SM08502; NSC835563), CC-671 (NSC850746), vemurafenib (NSC761431), tapotoclax (NSC804041), sotorasib (NSC818433), adagrasib (NSC831453), MRTX-1133 (NSC836407), BAY2416964 (NSC825713), copanlisib (NSC816437), inavolisib (NSC800729), abemaciclib (NSC768073), osimertinib (NSC779217), entinostat (NSC756642), eltanexor (KPT-8602, NSC794443), venetoclax (NSC766270), ceralasertib (NSC777638), bortezomib (NSC756655), olaparib (NSC753686), talazoparib (NSC767125), alisertib (NSC759677), peposertib (NSC802822), gemcitabine (NSC613327), 5-fluorouracil (NSC19893), SN-38 (NSC673596), oxaliplatin (NSC266046), paclitaxel (NSC125973), and doxorubicin (NSC123127), were obtained from the National Cancer Institute (NCI) Developmental Therapeutics Program Chemical Repository. The FDA-approved anticancer drug set is available from the Developmental Therapeutics Program at https://dtp.cancer.gov/organization/dscb/obtaining/available plates.htm. […] The stock solutions were prepared in dimethyl sulfoxide (DMSO, Sigma-Aldrich, St. Louis, MO, cat. D2650), except for the platinum complexes which were prepared in saline (Quality Biological, Gaithersburg, MD, cat. 114-055-101), at 800-fold the tested concentration and stored at -70 degrees C prior to their use. All drugs and investigational agents were tested over a range starting from a high concentration at or near the clinical Cmax and decreasing in half-log increments. If the clinical Cmax for an agent had not been determined, the highest concentration tested was 10 microM.
Cell Culture. All cells were maintained in an incubator at 37 degrees C and 5% CO2 with 95% humidity. The PDC lines were cultured according to standard operating procedures established by the NCI PDMR. Briefly, all PDCs were thawed and cultured in Matrigel-coated flasks prepared with a working solution of 1X Ham's F-12 nutrient mix, without supplementation (Invitrogen, Waltham, MA, cat. 11765054), 100 U/mL penicillin-streptomycin (Invitrogen, cat. 15140122), and 2.5% Matrigel (Corning Inc., Corning, NY, cat. 354248) for the first three passages. The 947758-054-R-J2-PDC line was cultured in 6B/Colon 1A media, which includes advanced DMEM/F-12 (Thermo Fisher Scientific, cat. 12634028), 10 mM HEPES (Thermo Fisher Scientific, cat. 15630080), 1X GlutaMAX supplement (Thermo Fisher Scientific, cat. 35050061), 0.1 mg/mL primocin (InvivoGen, cat. ant-pm-2), 10% defined fetal bovine serum, heat inactivated (HyClone Laboratories Inc., cat. SH30070.03HI), 1.25 mM N-Acetyl-L-cysteine (Sigma-Aldrich, cat. A9165), 10 mM nicotinamide (Sigma-Aldrich, cat. N0636), 1X B-27 supplement (Thermo Fisher Scientific, cat. 17504044), 1X N-2 supplement (Thermo Fisher Scientific, cat. 17502048), and 10 microM Y-27632 dihydrochloride (Tocris Bioscience, cat. 1254). The 876862-298-R-J1-PDC was cultured in 6E media, which includes all 6B/Colon 1A media components plus 50% L-WRN conditioned media (ATCC, cat. CRL-3276), 50 ng/mL recombinant human EGF recombinant protein (hEGF; Thermo Fisher Scientific, cat. PHG0311), 10 ng/mL recombinant human fibroblast growth factor 10 (hGFG-10; PeproTech, cat. 100-26), 1 ng/mL recombinant human fibroblast growth factor 2 (hFGF-2; PeproTech, cat. 100-18B), and 1 µM prostaglandin E2 (PGE2; Tocris, cat. 2296). The 227483-062-R1-J1-PDC line was cultured in Panc media, containing all 6E components except hFGF-2, with the addition of 500 nM SB-431542 (Selleckchem, cat. S1067) and 10 nM gastrin (Tocris, cat. 3006). […]

[1] = second compound 0.0316 µM, first compound 0.0316 µM
[2] = second compound 0.0316 µM, first compound 0.1 µM
[3] = second compound 0.0316 µM, first compound 0.316 µM
[4] = second compound 0.0316 µM, first compound 1 µM
[5] = second compound 0.0316 µM, first compound 3.16 µM
[6] = second compound 0.0316 µM, first compound 10 µM
[7] = second compound 0.1 µM, first compound 0.0316 µM
[8] = second compound 0.1 µM, first compound 0.1 µM
[9] = second compound 0.1 µM, first compound 0.316 µM
[10] = second compound 0.1 µM, first compound 1 µM
[11] = second compound 0.1 µM, first compound 3.16 µM
[12] = second compound 0.1 µM, first compound 10 µM
[13] = second compound 0.316 µM, first compound 0.0316 µM
[14] = second compound 0.316 µM, first compound 0.1 µM
[15] = second compound 0.316 µM, first compound 0.316 µM
[16] = second compound 0.316 µM, first compound 1 µM
[17] = second compound 0.316 µM, first compound 3.16 µM
[18] = second compound 0.316 µM, first compound 10 µM
[19] = second compound 1 µM, first compound 0.0316 µM
[20] = second compound 1 µM, first compound 0.1 µM
[21] = second compound 1 µM, first compound 0.316 µM
[22] = second compound 1 µM, first compound 1 µM
[23] = second compound 1 µM, first compound 3.16 µM
[24] = second compound 1 µM, first compound 10 µM
[25] = second compound 3.16 µM, first compound 0.0316 µM
[26] = second compound 3.16 µM, first compound 0.1 µM
[27] = second compound 3.16 µM, first compound 0.316 µM
[28] = second compound 3.16 µM, first compound 1 µM
[29] = second compound 3.16 µM, first compound 3.16 µM
[30] = second compound 3.16 µM, first compound 10 µM
[31] = second compound 10 µM, first compound 0.0316 µM
[32] = second compound 10 µM, first compound 0.1 µM
[33] = second compound 10 µM, first compound 0.316 µM
[34] = second compound 10 µM, first compound 1 µM
[35] = second compound 10 µM, first compound 3.16 µM
[36] = second compound 10 µM, first compound 10 µM
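Note: spheroids exposed to agents for 7 days.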
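Throughout, for viability, T/C: 100% = DMSO vehicle wells.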

Nc1ccccc1NC(=O)c1ccc(CNC(=O)OCc2cccnc2)cc1 + CN1CCN(c2cc(C(=O)Nc3cc4cc(-c5cnn(C)c5)ccc4cn3)ccn2)CC1
IC50 (second compound 0.0316 µM): 4240 nM | IC50 (second compound 0.1 µM): 2540 nM | IC50 (second compound 0.316 µM): < 31.6 nM | IC50 (second compound 1 µM): < 31.6 nM | IC50 (second compound 3.16 µM): < 31.6 nM | IC50 (second compound 10 µM): < 31.6 nM | viability, T/C [1]: 95% | viability, T/C [2]: 95.3% | viability, T/C [3]: 110% | viability, T/C [4]: 118% | viability, T/C [5]: 62.7% | viability, T/C [6]: 12.6% | viability, T/C [7]: 110% | viability, T/C [8]: 123% | viability, T/C [9]: 118% | viability, T/C [10]: 119% | viability, T/C [11]: 34.1% | viability, T/C [12]: 8.04% | viability, T/C [13]: 26.6% | viability, T/C [14]: 31.3% | viability, T/C [15]: 20.9% | viability, T/C [16]: 18.9% | viability, T/C [17]: 3.92% | viability, T/C [18]: 2.67% | viability, T/C [19]: 0.16% | viability, T/C [20]: 0.17% | viability, T/C [21]: 2.95% | viability, T/C [22]: 0.09% | viability, T/C [23]: 3.76% | viability, T/C [24]: 3.49% | viability, T/C [25]: 0.1% | viability, T/C [26]: 0.71% | viability, T/C [27]: 0.63% | viability, T/C [28]: 0.09% | viability, T/C [29]: 1.87% | viability, T/C [30]: 1.46% | viability, T/C [31]: 0.08% | viability, T/C [32]: 0.52% | viability, T/C [33]: 3.6% | viability, T/C [34]: 0.17% | viability, T/C [35]: 0.18% | viability, T/C [36]: 2.22%

CC(CO)NC(=O)c1cc(-c2ccc(Cl)cc2)nn(-c2cnn(C)c2)c1=O (centres undefined) + CN1CCN(c2cc(C(=O)Nc3cc4cc(-c5cnn(C)c5)ccc4cn3)ccn2)CC1
IC50 (second compound 0.0316 µM): > 10000 nM | IC50 (second compound 0.1 µM): > 10000 nM | IC50 (second compound 0.316 µM): < 31.6 nM | IC50 (second compound 1 µM): < 31.6 nM | IC50 (second compound 3.16 µM): < 31.6 nM | IC50 (second compound 10 µM): < 31.6 nM | viability, T/C [1]: 104% | viability, T/C [2]: 89.5% | viability, T/C [3]: 91.5% | viability, T/C [4]: 91.6% | viability, T/C [5]: 93% | viability, T/C [6]: 100% | viability, T/C [7]: 94.7% | viability, T/C [8]: 108% | viability, T/C [9]: 90.6% | viability, T/C [10]: 93.6% | viability, T/C [11]: 97.3% | viability, T/C [12]: 85.7% | viability, T/C [13]: 31.3% | viability, T/C [14]: 41.5% | viability, T/C [15]: 26.3% | viability, T/C [16]: 27.7% | viability, T/C [17]: 33.1% | viability, T/C [18]: 32.4% | viability, T/C [19]: 0.18% | viability, T/C [20]: 0.19% | viability, T/C [21]: 0.23% | viability, T/C [22]: 0.14% | viability, T/C [23]: 0.57% | viability, T/C [24]: 1.49% | viability, T/C [25]: 0.15% | viability, T/C [26]: 0.42% | viability, T/C [27]: 0.16% | viability, T/C [28]: 1.94% | viability, T/C [29]: 2.32% | viability, T/C [30]: 0.14% | viability, T/C [31]: 1.31% | viability, T/C [32]: 0.25% | viability, T/C [33]: 0.22% | viability, T/C [34]: 0.24% | viability, T/C [35]: 1.28% | viability, T/C [36]: 0.23%
